The target in this assay is T1, hMCHR1 (Homo sapiens, UniProt Q99705).
T1 construct: expressed in transfected cells; host or cells: HEK293
The assay can be described thus: MCHR1 pIC50 determination FLIPR assay. The settings on record: HEK293 cells stably transfected with hMCHR1; MCH challenge at 4xEC50. The format is cell-based. The method, then:
MCHR1 plC50 Determination FLIPR™Assay: HEK293 cells stably transfected with hMCHR1 were propagated as adherent cultures at 37° C. in a humidified incubator. Cells were split 1:8 at 90% confluency two times per week. New cell stocks were recovered from storage every two months. Cells were plated in black 384-well plates (Greiner) 24 hours prior to assay at 15,000 cells/well in 50 μL DMEM/F12, 10% FBS, 2 mM I-glutamine. Compounds to be profiled were prepared by making a stock solution at 3×10^−3M in 100% DMSO. The stock solutions were serially diluted 1:4 in 100% DMSO using JANUS (PerkinElmer) liquid handling instrument to allow for an 11 point curve in singlicate. At the time of the assay, the media was removed from the cell plate by aspiration, followed by the addition of 20 μL of loading buffer (Calcium 4 Kit, […]). Following 50 min incubation at 37° C., 10 μL of compound was added to the plates via the FLIPR™ instrument (Molecular Dynamics corporation). The plates were incubated at room temperature for 15 minutes along with an MCH peptide agonist challenge plate. On the FLIPR™, a basal response was collected over 10 seconds followed by the addition of 10 μL of MCH challenge concentration at 4×EC50. Data was collected over 4 minutes and subjected to a nonlinear regression analysis curve fitting program to generate plC50s.

T1 sequence (Q99705 whole entry): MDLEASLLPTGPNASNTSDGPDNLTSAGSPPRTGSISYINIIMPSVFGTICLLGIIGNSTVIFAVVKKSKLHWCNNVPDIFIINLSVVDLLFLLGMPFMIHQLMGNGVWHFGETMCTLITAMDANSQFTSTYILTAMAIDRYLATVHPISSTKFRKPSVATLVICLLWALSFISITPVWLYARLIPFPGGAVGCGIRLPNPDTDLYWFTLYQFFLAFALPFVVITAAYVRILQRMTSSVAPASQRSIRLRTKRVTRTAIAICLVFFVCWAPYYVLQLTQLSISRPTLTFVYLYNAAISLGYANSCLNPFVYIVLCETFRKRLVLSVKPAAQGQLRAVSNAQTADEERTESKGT

A word on the IC50: it is the concentration that inhibits the measured activity by half. A low value points to greater potency. The molecule `CCS(=O)(=O)NCCNc1ccc(-n2ccc(OCc3ccc(Cl)cn3)cc2=O)cn1` [Example 27] came in with an IC50 of 90 nM.
Turning to `CCN(CC)CCNc1ccc(-n2ccc(OCc3ccc(Cl)cn3)cc2=O)cn1` [Example 8], inhibition was half-maximal at 25 nM (IC50).
In turn, `CS(=O)(=O)NCCNc1ccc(-n2ccc(OCc3ccc(Cl)cn3)cc2=O)cn1` [Example 20] came in with a concentration for half-maximal inhibition (IC50) of 50 nM.

These data come from US20120083489A1, “BIS-PYRIDYLPYRIDONES AS MELANIN-CONCENTRATING HORMONE RECEPTOR ANTAGONISTS” (priority 2009, published 2012).
